Source: patent publication US20060111423A1, “Use of diindolylmethane-related indoles and growth factor receptor inhibitors for the treatment of human cytomegalovirus-associated disease” (priority 2004, published 2006)

What was measured:
[1] = test system: Towne strain HCMV; test: HCMV titer reduction assay in HEL fibroblasts; format: cell-based, Human Cytomegalovirus; conditions: HEL fibroblasts infected with HCMV, supernatant day 6 postinfection, plaque assay
Protocol: Cell culture studies are performed to establish activity of DIM-related indoles alone and in combination with GFR's as inhibitors of HCMV replication in an in vitro model relevant to human infection.
Cell culture and viral infection. Human embryonic lung (HEL) fibroblasts are cultured in Eagle's minimal essential media (EMEM) (Gibco, BRL) supplemented with 10% fetal bovine serum (FBS) plus antibiotics.
Towne strain HCMV (passages 36 to 40) is propagated in HEL fibroblasts as previously described (Kowalik et al., 1993, Proc. Natl. Acad. Sci. USA 90:1107-1111).
For infection, cells are grown to confluence and then are serum starved for 48 h in minimal essential media (MEM) plus antibiotics. Cells are infected with HCMV that had been purified through a sucrose cushion to eliminate cytokines and growth factor contamination. Seeding of cells using a multiplicity of infection of 2-5 PFU per cell is used.
At the indicated time after infection, cells are washed once and then are maintained in MEM plus antibiotics until they are harvested. Cells are pretreated for 1 h with the listed compound or combinations of compounds prior to infection. […]
Titer reduction assay. The levels of active virus during the culture period are determined using a Titer Reduction Assay. […] HCMV plaque numbers are scored under an inverted microscope.

[2] = test system: TRAMP-C2 prostate cancer cells; format: in vivo; conditions: C57BL/6 mice, gavage once daily 5 days per week, 4 weeks
Protocol: METHODS: TRAMP-C2 cells, a mouse PC cell line are obtained from the American Type Culture Collection (Rockville, Md.). Six week old male C57BL/6 mice are purchased from Harlan Laboratories (Harlan, USA). TRAMP-C2 cells are suspended in media and aliquots are injected into the flank of male C57BL/6 mice using a 27 gauge needle. Two weeks after tumor transplantation when tumors appear, mice are divided in six groups treated as indicated:
Animals are dosed by gavage once daily, 5 days per week. Tumor volumes are measured weekly for 4 weeks following transplantation using calipers. Later, the tumors are removed, their final weights and volumes are measured. […] Tumor volumes in mm^2 are determined during the study using the formula π/6×larger diameter×(smaller diameter)^2. The data are expressed as the increase or decrease in tumor volume in mm^3. Histological studies are performed to assess the contribution of apotosis promotion in the reduction of tumor volume in treated groups.

SMILES	viral titers [1]	tumor growth (tumor volumes compared to control group) [2]
c1ccc2c(Cc3c[nH]c4ccccc34)c[nH]c2c1 [Diindolylmethane, 3,3′-diindolylmethane]	significant decrease	inhibition of tumor growth
COc1cc2ncnc(Nc3ccc(F)c(Cl)c3)c2cc1OCCCN1CCOCC1 [Gefitinib, N-(3-chloro-4-fluorophenyl)-7-methoxy-6-(3-morpholinopropoxy)quinazolin-4-amine, reference compound]		inhibition of tumor growth
